According to patent US9187437B2, “Substituted oxadiazole compounds” (BRISTOL-MYERS SQUIBB COMPANY, priority 2010, dated 2015):

Key:
S1P1 [1] = target: T1, S1P1 (Homo sapiens (Human), UniProt P21453); assay: S1P1 Binding Assay (33P-S1P radioligand competition, membranes from CHO cells); conditions: membranes from CHO cells expressing human S1P1; 0.03 nM 33P-S1P; rounded to two significant digits
Protocol: Membranes were prepared from CHO cells expressing human S1P1. Cells pellets (1×10^8 cells/pellet) were suspended in buffer containing 20 mM HEPES, pH 7.5, 50 mM NaCl, 2 mM EDTA and Protease Inhibitor cocktail (Roche), and disrupted on ice using the Polytron homogenizer. The homogenate was centrifuged at 20,000 rpm (48,000 g) and the supernatant was discarded. The membrane pellets were resuspended in buffer containing 50 mM HEPES, pH 7.5, 100 mM NaCl, 1 mM MgCl2, 2 mM EDTA and stored in aliquots at −80° C. after protein concentration determination.
The IC50 is defined as the concentration of competing ligand needed to reduce specific binding by 50%.

S1P1 [2] = target: T1, S1P1; assay: Receptor [35S] GTPγS Binding Assay, S1P1/CHO cell membranes; format: biochemical; conditions: membranes from S1P1/CHO cells; rounded to two significant digits
Protocol: (§1) Receptor [35S] GTPγS Binding Assays
(§2) Compounds were loaded in a 384 Falcon v-bottom plate (0.5 μl/well in a 11 point, 3-fold dilution). Membranes prepared from S1P1/CHO cells or EDG3-Ga15-bla HEK293T cells were added to the compound plate (40 μl/well, final protein 3 μg/well) with MULTIDROP®. [^35S]GTP (1250 Ci/mmol, Perkin Elmer) was diluted in assay buffer: 20 mM HEPES, pH7.5, 10 mM MgCl2, 150 mM NaCl, 1 mM EGTA, 1 mM DTT, 10 μM GDP, 0.1% fatty acid free BSA, and 10 μg/ml Saponin to 0.4 nM. 40 μl of the [^35S] GTP solution was added to the compound plate with a final concentration of 0.2 nM. The reaction was kept at room temperature for 45 min. At the end of incubation, all the mixtures in the compound plate were transferred to Millipore 384-well FB filter plates via the VELOCITY11® Vprep liquid handler. The filter plate was washed with water 4 times by using the manifold Embla plate washer and dried at 60° C. for 45 min. MicroScint 20 scintillation fluid (30 μl) was added to each well for counting on the Packard TOPCOUNT®. EC50 is defined as the agonist concentration that corresponds to 50% of the Ymax (maximal response) obtained for each individual compound tested. The results in Table B were rounded to two significant digits.

S1P3 = S1P3 (Homo sapiens (Human), UniProt Q99500); assay: Receptor [35S] GTPγS Binding Assay, EDG3-Ga15-bla HEK293T cell membranes; format: biochemical; conditions: membranes from EDG3-Ga15-bla HEK293T cells; rounded to two significant digits
Protocol: as §1, §2

Sequence of S1P3 (Q99500 whole entry): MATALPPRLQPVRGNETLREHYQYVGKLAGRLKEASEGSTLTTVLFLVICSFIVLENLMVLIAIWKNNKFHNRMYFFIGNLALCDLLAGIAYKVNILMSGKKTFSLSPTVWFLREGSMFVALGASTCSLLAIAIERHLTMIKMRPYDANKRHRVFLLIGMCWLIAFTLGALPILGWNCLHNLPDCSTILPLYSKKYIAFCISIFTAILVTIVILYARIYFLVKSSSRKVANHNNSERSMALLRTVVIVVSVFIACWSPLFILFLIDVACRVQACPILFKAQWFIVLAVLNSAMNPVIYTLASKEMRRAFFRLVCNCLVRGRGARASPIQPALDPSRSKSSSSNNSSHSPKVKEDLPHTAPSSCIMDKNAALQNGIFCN
T1 sequence (P21453 whole entry): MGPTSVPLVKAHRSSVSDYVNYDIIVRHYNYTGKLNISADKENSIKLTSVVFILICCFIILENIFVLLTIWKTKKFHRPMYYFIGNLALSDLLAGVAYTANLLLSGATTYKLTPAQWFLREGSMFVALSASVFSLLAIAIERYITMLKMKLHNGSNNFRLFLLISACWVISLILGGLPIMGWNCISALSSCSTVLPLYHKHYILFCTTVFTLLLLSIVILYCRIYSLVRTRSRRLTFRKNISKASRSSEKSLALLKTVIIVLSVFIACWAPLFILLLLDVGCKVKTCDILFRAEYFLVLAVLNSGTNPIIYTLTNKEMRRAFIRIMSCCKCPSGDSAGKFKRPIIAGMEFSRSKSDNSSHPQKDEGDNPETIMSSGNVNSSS

| SMILES | IC50 (S1P1 [1]) | EC50 (S1P1 [2]) | EC50 (S1P3) |
| --- | --- | --- | --- |
| Cc1ccc(-c2noc(CCC3(c4cc(F)cc(F)c4)CCCCC3)n2)c(=O)[nH]1 [Example 1, 3-(5-(2-(1-(3,5-Difluorophenyl)cyclohexyl)ethyl)-1,2,4-oxadiazol-3-yl)-6-methyl-2(1H)-pyridinone] | 1300 nM | – | – |
| O=c1cc(-c2noc(CCC3(c4cc(F)cc(F)c4)CCCCC3)n2)cc[nH]1 [Example 2, 4-(5-(2-(1-(3,5-Difluorophenyl)cyclohexyl)ethyl)-1,2,4-oxadiazol-3-yl)-2(1H)-pyridinone] | 13 nM | – | – |
| FC(F)(F)c1cc(-c2noc(CCC3(c4ccccc4)CCCCC3)n2)cc(C(F)(F)F)c1 [Example 4, 3-(3,5-bis(trifluoromethyl)phenyl)-5-(2-(1-phenylcyclohexyl)ethyl)-1,2,4-oxadiazole] | – | 280 nM | > 62000 nM |
| Fc1ccc(-c2noc(CCC3(c4ccccc4)CCCCC3)n2)cc1 [Example 5, 3-(4-fluorophenyl)-5-(2-(1-phenylcyclohexyl)ethyl)-1,2,4-oxadiazole] | 12 nM | – | – |
| c1ccc(-c2noc(CCC3(c4ccccc4)CCCCC3)n2)cc1 [Example 7, 3-phenyl-5-(2-(1-phenylcyclohexyl)ethyl)-1,2,4-oxadiazole] | 3.3 nM | 130 nM | 630 nM |
| FC(F)(F)c1cccc(-c2noc(CCC3(c4ccccc4)CCCCC3)n2)c1 [Example 8, 5-(2-(1-phenylcyclohexyl)ethyl)-3-(3-(trifluoromethyl)phenyl)-1,2,4-oxadiazole] | 33 nM | 710 nM | > 62000 nM |
| Cc1cccc(-c2noc(CCC3(c4ccccc4)CCCCC3)n2)c1 [Example 9, 3-(3-methylphenyl)-5-(2-(1-phenylcyclohexyl)ethyl)-1,2,4-oxadiazole] | – | 530 nM | 2200 nM |
| Fc1ccc(-c2noc(CCC3(c4ccccc4)CCCCC3)n2)cc1F [Example 12, 3-(3,4-difluorophenyl)-5-(2-(1-phenylcyclohexyl)ethyl)-1,2,4-oxadiazole] | – | 330 nM | 5900 nM |
| Fc1cc(-c2noc(CCC3(c4ccccc4)CCCCC3)n2)ccc1C(F)(F)F [Example 13, 3-(3-fluoro-4-(trifluoromethyl)phenyl)-5-(2-(1-phenylcyclohexyl)ethyl)-1,2,4-oxadiazole] | 210 nM | – | – |
| Clc1ccc(-c2noc(CCC3(c4ccccc4)CCCCC3)n2)c(Cl)c1 [Example 17, 3-(2,4-dichlorophenyl)-5-(2-(1-phenylcyclohexyl)ethyl)-1,2,4-oxadiazole] | – | 740 nM | 1200 nM |
| COc1cc(OC)cc(-c2noc(CCC3(c4ccccc4)CCCCC3)n2)c1 [Example 19, 3-(3,5-dimethoxyphenyl)-5-(2-(1-phenylcyclohexyl)ethyl)-1,2,4-oxadiazole] | – | 2200 nM | 1700 nM |

Other lines, results leading:

| IC50 (S1P1 [1]) | EC50 (S1P1 [2]) | EC50 (S1P3) | SMILES |
| --- | --- | --- | --- |
| 410 nM | – | – | Fc1ccccc1COc1ccc(-c2noc(CCC3(c4ccccc4)CCCCC3)n2)cc1 [Example 20, 3-(4-((2-fluorobenzyl)oxy)phenyl)-5-(2-(1-phenylcyclohexyl)ethyl)-1,2,4-oxadiazole] |
| – | 3200 nM | 1300 nM | Clc1ncn(Cc2cccc(-c3noc(CCC4(c5ccccc5)CCCCC4)n3)c2)c1Cl [Example 24, 3-(3-((4,5-dichloro-1H-imidazol-1-yl)methyl)phenyl)-5-(2-(1-phenylcyclohexyl)ethyl)-1,2,4-oxadiazole] |
| 8.1 nM | 4900 nM | 16000 nM | COc1ccc(OC)c(-c2noc(CCC3(c4ccccc4)CCCCC3)n2)c1 [Example 26, 3-(2,5-dimethoxyphenyl)-5-(2-(1-phenylcyclohexyl)ethyl)-1,2,4-oxadiazole] |
| 610 nM | – | – | Clc1ccc(COc2ccc(-c3noc(CCC4(c5ccccc5)CCCCC4)n3)cc2)cc1 [Example 27, 3-(4-((4-chlorobenzyl)oxy)phenyl)-5-(2-(1-phenylcyclohexyl)ethyl)-1,2,4-oxadiazole] |
| 25 nM | – | – | Fc1ccc(-c2noc(CCC3(c4ccccc4)CCCCC3)n2)c(F)c1 [Example 28, 3-(2,4-difluorophenyl)-5-(2-(1-phenylcyclohexyl)ethyl)-1,2,4-oxadiazole] |
| – | 36 nM | 430 nM | Nc1cc(-c2noc(CCC3(c4ccccc4)CCCCC3)n2)ccn1 [Example 29, 4-(5-(2-(1-phenylcyclohexyl)ethyl)-1,2,4-oxadiazol-3-yl)-2-pyridinamine] |
| 97 nM | – | – | c1ccc(C2(CCc3nc(-c4ccccn4)no3)CCCCC2)cc1 [Example 30, 2-(5-(2-(1-phenylcyclohexyl)ethyl)-1,2,4-oxadiazol-3-yl)pyridine] |
| 0.54 nM | 50 nM | 430 nM | Clc1cc(-c2noc(CCC3(c4ccccc4)CCCCC3)n2)ccn1 [Example 32, 2-chloro-4-(5-(2-(1-phenylcyclohexyl)ethyl)-1,2,4-oxadiazol-3-yl)pyridine] |
| 1.9 nM | 67 nM | 550 nM | Nc1ncccc1-c1noc(CCC2(c3ccccc3)CCCCC2)n1 [Example 33, 3-(5-(2-(1-phenylcyclohexyl)ethyl)-1,2,4-oxadiazol-3-yl)-2-pyridinamine] |
| 67 nM | – | – | [O-][n+]1ccc(-c2noc(CCC3(c4ccccc4)CCCCC3)n2)cc1 [Example 34, 4-(5-(2-(1-phenylcyclohexyl)ethyl)-1,2,4-oxadiazol-3-yl)pyridine 1-oxide] |
| – | 100 nM | 2200 nM | c1ccc(C2(CCc3nc(-c4cccnc4)no3)CCCCC2)cc1 [Example 38, 3-(5-(2-(1-phenylcyclohexyl)ethyl)-1,2,4-oxadiazol-3-yl)pyridine] |
| 1.2 nM | – | – | Cc1ccsc1-c1noc(CCC2(c3ccccc3)CCCCC2)n1 [Example 40, 3-(3-methyl-2-thienyl)-5-(2-(1-phenylcyclohexyl)ethyl)-1,2,4-oxadiazole] |
| 12000 nM | > 62000 nM | – | c1ccc(-c2noc(C3(c4ccccc4)CCCCC3)n2)cc1 [Example 42, 3-Phenyl-5-(1-phenylcyclohexyl)-1,2,4-oxadiazole, reference compound] |
